From ChEMBL document CHEMBL1146039, “Synthesis and antitumor activity of two natural N-acetylglucosamine-bearing triterpenoid saponins: lotoidoside D and E” (Bioorg Med Chem Lett, 2006)
pIC50: −log10 of the molar value.

Legend:
HeLa [1] = assay: Antitumor activity against HeLa cell line at 10 nM by MTT assay; type: functional; details: Homo sapiens
HeLa [2] = assay: Antitumor activity against HeLa cell line at 1 uM by MTT assay; type: functional; details: Homo sapiens
HeLa [3] = assay: Antitumor activity against HeLa cell line at 10 uM by MTT assay; type: functional; details: Homo sapiens
HeLa [4] = assay: Antitumor activity against HeLa cell line at 100 nM by MTT assay; type: functional; details: Homo sapiens
WEHI-164 = assay: Antitumor activity against WEHI 164 cell; type: functional, cell-based; details: Mus musculus
HeLa [5] = assay: Antitumor activity against HeLa cell line by MTT assay; type: functional, cell-based; details: Homo sapiens

pIC50 (WEHI-164) | pIC50 (HeLa [5]) | Compound | inhibition at 0.01 µM (HeLa [1]) | inhibition at 1 µM (HeLa [2]) | inhibition at 10 µM (HeLa [3]) | inhibition at 0.1 µM (HeLa [4])
6.44 | 5.56 | CC(=O)N[C@H]1[C@H](O[C@H]2CC[C@]3(C)[C@H]4CC=C5[C@@H]6CC(C)(C)CC[C@]6(C(=O)O)CC[C@@]5(C)[C@]4(C)CC[C@H]3C2(C)C)O[C@H](CO)[C@H](O[C@@H]2O[C@H](CO)[C@@H](O)[C@H](O)[C@H]2O)[C@@H]1O[C@@H]1O[C@H](CO)[C@H](O)[C@H](O)[C@H]1O [LOTOIDOSIDE D] | 34.4% | 35.3% | 56.4% | 32.8%
7.52 | < 5.00 | CC(=O)N[C@H]1[C@H](O[C@H]2CC[C@]3(C)[C@H]4CC=C5[C@@H]6CC(C)(C)CC[C@]6(C(=O)O)CC[C@@]5(C)[C@]4(C)CC[C@H]3C2(C)C)O[C@H](CO)[C@@H](O)[C@@H]1O[C@@H]1O[C@H](CO)[C@H](O)[C@H](O)[C@H]1O [LOTOIDOSIDE E] | 0.79% | 10% | 42% | 1.71%
